Source: PubChem BioAssay AID328 (DTP/NCI, 2004)
Where “and” joins values, the source holds several entries; their conditions need not be identical. Equal values may be shown once. Toxic doses and inconclusive results are not listed. Positions of bridges follow the written chain, without caps; N, C: chain ends. Non-standard residues stand in square brackets, D forms with d. Residues, ends and D or L forms follow the SMILES beside them. Pip(4-oxo) = O=C1CCN[CH](C(=O)O)C1; NMeV = CN[CH](C(=O)O)C(C)C; Sar = CNCC(=O)O

System: BDF1 mice, P388 leukemia ip, median survival T/C
Assay: NCI In Vivo Anticancer Drug Screen. Data for tumor model P388 Leukemia (intraperitoneal) in B6D2F1 (BDF1) mice
Details: endpoint: median survival time, higher = longer survival
Summary of the method: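 Reported as T/C, where T is the survival measurement in dosed animals and C the same measurement in vehicle controls.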

[1] = dose: 100.0 mg/kg/injection, schedule: Q04DX003 (ip), vehicle: saline with Tween-80
[2] = dose: 100.0 mg/kg/injection, schedule: Q01DX009 (ip), vehicle: Klucel (hydroxypropylcellulose) (HPC)
[3] = dose: 200.0 mg/kg/injection, schedule: Q01DX009 (ip), vehicle: Klucel (hydroxypropylcellulose) (HPC)
[4] = dose: 50.0 mg/kg/injection, schedule: Q01DX009 (ip), vehicle: saline with Tween-80
[5] = dose: 100.0 mg/kg/injection, schedule: Q01DX009 (ip), vehicle: saline with Tween-80
[6] = dose: 200.0 mg/kg/injection, schedule: Q01DX009 (ip), vehicle: saline with Tween-80
[7] = dose: 200.0 mg/kg/injection, schedule: Q04DX003 (ip), vehicle: saline with Tween-80
[8] = dose: 400.0 mg/kg/injection, schedule: Q04DX003 (ip), vehicle: saline with Tween-80
[9] = dose: 25.0 mg/kg/injection, schedule: Q01DX009 (ip), vehicle: saline
[10] = dose: 50.0 mg/kg/injection, schedule: Q01DX009 (ip), vehicle: saline
[11] = dose: 100.0 mg/kg/injection, schedule: Q01DX001 (ip), vehicle: saline with Tween-80
[12] = dose: 200.0 mg/kg/injection, schedule: Q01DX001 (ip), vehicle: saline with Tween-80
[13] = dose: 400.0 mg/kg/injection, schedule: Q01DX001 (ip), vehicle: saline with Tween-80
[14] = dose: 100.0 mg/kg/injection, schedule: Q04DX003 (ip), vehicle: Klucel (hydroxypropylcellulose) (HPC)
[15] = dose: 200.0 mg/kg/injection, schedule: Q04DX003 (ip), vehicle: Klucel (hydroxypropylcellulose) (HPC)
[16] = dose: 400.0 mg/kg/injection, schedule: Q04DX003 (ip), vehicle: Klucel (hydroxypropylcellulose) (HPC)

With `CCOc1cc(/C=N\Nc2nncn2N)ccc1N(CCCl)CCCl` the T/C (dose: 0.8 mg/kg/injection, schedule: Q04DX003 (ip), vehicle: saline with Tween-80) was 113 % of control, the T/C (dose: 3.0 mg/kg/injection, schedule: Q04DX003 (ip), vehicle: saline with Tween-80) was 154 % of control and the T/C (dose: 5.0 mg/kg/injection, schedule: Q04DX003 (ip), vehicle: saline with Tween-80) was 169 % of control. For the same compound, the T/C (dose: 8.0 mg/kg/injection, schedule: Q04DX003 (ip), vehicle: saline with Tween-80) was 165 % of control, the T/C (dose: 10.0 mg/kg/injection, schedule: Q04DX003 (ip), vehicle: saline with Tween-80) was 210 % of control and the T/C (dose: 12.0 mg/kg/injection, schedule: Q04DX003 (ip), vehicle: saline with Tween-80) was 203 % of control. For the same compound, the T/C (dose: 18.0 mg/kg/injection, schedule: Q04DX003 (ip), vehicle: saline with Tween-80) was 278 % of control and 154 % of control, the T/C (dose: 20.0 mg/kg/injection, schedule: Q04DX003 (ip), vehicle: saline with Tween-80) was 275 % of control and the T/C (dose: 26.0 mg/kg/injection, schedule: Q04DX003 (ip), vehicle: saline with Tween-80) was 300 % of control and 163 % of control. For the same compound, the T/C (dose: 40.0 mg/kg/injection, schedule: Q04DX003 (ip), vehicle: saline with Tween-80) was 300 % of control and 105 % of control and 213 % of control.

`C[N+](C)(Cn1ncc2ccc([N+](=O)[O-])cc21)Cn1ncc2ccc([N+](=O)[O-])cc21` was tested, and the T/C [1] was 106 % of control.

For `O=C(Nc1cccc(C(F)(F)F)c1)Nc1nccs1`, the T/C (dose: 25.0 mg/kg/injection, schedule: Q01DX009 (ip), vehicle: Klucel (hydroxypropylcellulose) (HPC)) was 121 % of control, the T/C (dose: 50.0 mg/kg/injection, schedule: Q01DX009 (ip), vehicle: Klucel (hydroxypropylcellulose) (HPC)) was 111 % of control and the T/C [2] was 102 % of control. For the same compound, the T/C [3] was 104 % of control.

In the case of `O=c1[nH]ccc2c(O)cccc12`, the T/C [4] is reported as 96 % of control, the T/C (dose: 50.0 mg/kg/injection, schedule: Q04DX003 (ip), vehicle: saline with Tween-80) is reported as 100 % of control and the T/C [5] is reported as 92 % of control. For the same compound, the T/C [1] was 95 % of control, the T/C [6] was 96 % of control and the T/C [7] was 91 % of control.

In the case of `CCOC(=O)C(=O)C1CCCC1=O` (stereo not drawn), the T/C [5] is reported as 92 % of control, the T/C [1] is reported as 95 % of control and the T/C [6] is reported as 89 % of control. The T/C [7] was 109 % of control, the T/C (dose: 400.0 mg/kg/injection, schedule: Q01DX009 (ip), vehicle: saline with Tween-80) was 92 % of control and the T/C [8] was 100 % of control.

`COc1ccc(CNCCNCc2ccc(OC)c(OC)c2)cc1OC` was tested, and the T/C [1] was 115 % of control, the T/C [7] was 105 % of control and the T/C [8] was 110 % of control.

In the case of `COc1ncnc2c1c(C#N)cn2C1OC(CO)C(O)C1O` (stereo not drawn), the T/C (dose: 6.25 mg/kg/injection, schedule: Q01DX009 (ip), vehicle: saline) is reported as 102 % of control, the T/C (dose: 12.5 mg/kg/injection, schedule: Q01DX009 (ip), vehicle: saline) is reported as 102 % of control and the T/C [9] is reported as 102 % of control. The T/C [10] was 95 % of control.

`COc1ccc(C(O)c2ccccn2)cc1` (stereo not drawn) was tested, and the T/C [1] was 100 % of control, the T/C [7] was 110 % of control and the T/C [8] was 105 % of control.

`CC(C)n1cnc2c(Cl)ncnc21` was tested, and the T/C [5] was 100 % of control, the T/C [1] was 104 % of control and the T/C [7] was 95 % of control. The T/C [8] was 90 % of control.

`O=S1(=O)C(C(O)(c2ccccc2)c2ccccc2)CCCN1c1ccccc1` (stereo not drawn) was tested, and the T/C [4] was 100 % of control, the T/C [5] was 91 % of control and the T/C [6] was 97 % of control.

With `CCN(C(=O)Nc1ccccc1Cl)c1ccccc1` the T/C [11] was 95 % of control, the T/C [12] was 100 % of control and the T/C [13] was 100 % of control.

For `COC(=O)c1cc(=O)n(-c2ccccc2F)c(SC)n1`, the T/C [14] was 116 % of control.

`C=CCNc1ncnc2c1cnn2C` was tested, and the T/C [9] was 95 % of control and 104 % of control, the T/C [10] was 109 % of control and the T/C (dose: 50.0 mg/kg/injection, schedule: Q04DX003 (ip), vehicle: saline) was 118 % of control. For the same compound, the T/C (dose: 100.0 mg/kg/injection, schedule: Q01DX009 (ip), vehicle: saline) was 104 % of control, the T/C (dose: 100.0 mg/kg/injection, schedule: Q04DX003 (ip), vehicle: saline) was 109 % of control and the T/C (dose: 200.0 mg/kg/injection, schedule: Q04DX003 (ip), vehicle: saline) was 90 % of control.

For `Cc1ncc([N+](=O)[O-])n1CCN/C=C/C#N`, the T/C [1] was 111 % of control, the T/C [7] was 123 % of control and the T/C [8] was 120 % of control.

`CCN(CC)CCNc1ccc(N=Nc2cnc3ccccc3c2)c2ccccc12` was tested, and the T/C (dose: 75.0 mg/kg/injection, schedule: Q01DX009 (ip), vehicle: Klucel (hydroxypropylcellulose) (HPC)) was 95 % of control and the T/C (dose: 115.0 mg/kg/injection, schedule: Q01DX009 (ip), vehicle: Klucel (hydroxypropylcellulose) (HPC)) was 100 % of control.

`COc1ccc(NCCOc2ccccc2Br)cc1` was tested, and the T/C (dose: 100.0 mg/kg/injection, schedule: Q01DX009 (ip), vehicle: other) was 109 % of control and the T/C (dose: 400.0 mg/kg/injection, schedule: Q01DX009 (ip), vehicle: other) was 118 % of control.

`CCCCN(C)N=Nc1ccccc1C(N)=O` was tested, and the T/C (dose: 50.0 mg/kg/injection, schedule: Q04DX003 (ip), vehicle: Klucel (hydroxypropylcellulose) (HPC)) was 100 % of control, the T/C [5] was 120 % of control and the T/C [14] was 97 % of control. For the same compound, the T/C [15] was 109 % of control and the T/C [16] was 103 % of control.

For `CC1CCCCN1CCNc1ccc(CO)c2sc3ccccc3c(=O)c12` (stereo not drawn), the T/C (dose: 25.0 mg/kg/injection, schedule: Q01DX009 (ip), vehicle: saline with Tween-80) was 115 % of control, the T/C (dose: 44.0 mg/kg/injection, schedule: Q01DX009 (ip), vehicle: saline with Tween-80) was 119 % of control and the T/C [4] was 119 % of control. For the same compound, the T/C [5] was 192 % of control and 210 % of control, the T/C (dose: 150.0 mg/kg/injection, schedule: Q01DX009 (ip), vehicle: saline with Tween-80) was 278 % of control and the T/C [6] was 97 % of control.

With `C=CCOc1ccc([N+](=O)[O-])cc1[N+](=O)[O-]` the T/C [11] was 100 % of control, the T/C [12] was 105 % of control and the T/C [13] was 100 % of control.

With `CC(C)NC(=O)c1ccccc1S(=O)c1ccccc1` (stereo not drawn) the T/C [11] was 100 % of control, the T/C [12] was 101 % of control and the T/C [13] was 92 % of control.

With `CC(C)C1NC(=O)C(N)C(C)OC(=O)C(C(C)C)N(C)C(=O)CN(C)C(=O)C2CC(=O)CCN2C1=O` (stereo not drawn) (tested in a mixture with another compound) (H-TV[Pip(4-oxo)][Sar][NMeV]; ester 1-C; configuration not given here) the T/C (dose: 50.0 micrograms/kg/injection, schedule: Q01DX009 (ip), vehicle: saline + alcohol) was 168 % of control, the T/C (dose: 75.0 micrograms/kg/injection, schedule: Q01DX009 (ip), vehicle: saline + alcohol) was 203 % of control and the T/C (dose: 100.0 micrograms/kg/injection, schedule: Q01DX009 (ip), vehicle: saline + alcohol) was 192 % of control. For the same compound, the T/C (dose: 150.0 micrograms/kg/injection, schedule: Q01DX009 (ip), vehicle: saline + alcohol) was 230 % of control.

`Cc1ccccc1C(Br)C1=CC(C)(C)c2ccccc2C1=O` (stereo not drawn) was tested, and the T/C [2] was 95 % of control, the T/C [14] was 100 % of control and the T/C [3] was 100 % of control. For the same compound, the T/C [15] was 104 % of control, the T/C (dose: 400.0 mg/kg/injection, schedule: Q01DX009 (ip), vehicle: Klucel (hydroxypropylcellulose) (HPC)) was 95 % of control and the T/C [16] was 100 % of control.
